These results are taken from patent US20180273528A1 (LES LABORATOIRES SERVIER, priority 2015, published 2018).

For test [1], the target named is T1, His-TEV-DYRK1A Kinase domain (aa127-485) (Homo sapiens, UniProt Q13627).
T1 construct: His-TEV-DYRK1A Kinase domain (aa127-485); His tag (N); TEV protease cleavage site (N)
The experiment in a line: Kinase ADP assay (ADP Hunter), DYRK1A kinase domain. The settings on record: 20 μM ATP. In kind it is biochemical. How it is done: The enzyme reaction was conducted in assay buffer (pH 7.4), containing 15 mM Hepes; 20 mM NaCl; 1 mM EGTA; 10 mM MgCl2; 0.02% Tween20 and 0.1 mg/ml Bovine-y-globulin. Test compounds of the invention were added in reaction buffer in a range of concentrations for 10 minutes at 30° C. in the presence of 20 nM DYRK1A enzyme, 40 μM peptide substrate and 20 μM ATP. Detection reagents (DiscoveRx 90-0083), ADP Hunter Plus Reagent A and then ADP Hunter Plus Reagent B were added. After a following 20 minutes incubation at 30° C., ADP Hunter Plus Stop Solution was added. The fluorescence intensity was measured at 590 nm.

For test [2], the target named is DYRK1A (Homo sapiens, UniProt Q13627). The experiment in a line: Cellular DYRK1 autophosphorylation assay in U2-OS cells. The note with it: U2-OS cells transfected with HA-tagged human DYRK1A, 5 hours exposure; read-out: IC50 (μM) P-Ser520-Dyrk1A -Cell assay. The arrangement: full-length, wild-type human DYRK1A (NM_001396) with an HA tag; expressed in transfected cells; host or cells: human U2-OS osteosarcoma cells, transient transfection of a pcDNA3.1 plasmid. In kind it is cell-based. How it is done: On day 2, cells were exposed to a range of concentrations of the test compounds of the invention for 5 hours. […] The relative levels of phospho-Ser520-DYRK1A were assayed using either western blotting or the Mesoscale ELISA platform. For analysis by western blot, lysates were diluted into Laemmli sample buffer (Bio-Rad) containing 5% v/v β-mercaptoethanol, heated for 5 min at 95° C., and resolved on Tris-glycine gels or NuPage Bis-Tris gels (Novex; Invitrogen). Biotinylated molecular weight standards (Cell Signaling Technology) were included in all gels. Proteins were transferred to nitrocellulose membranes (Hybond, ECL; Amersham), which were blocked in Tris-buffered saline/0.1% tween 20 (TBST) containing 5% milk, and probed at 4° C. overnight with anti-phospho-Ser520-DYRK1A antibody (Eurogentec SE6974-75; 0.23 μg/ml in 5% BSA) or anti DYRK1A antibody (Abnova H00001859; 0.5 μg/ml in 5% milk). Peroxidase-conjugated secondary antibodies were diluted into 5% milk and applied to membranes for 1 h at 20° C. Chemiluminescence detection was performed using the ECL plus western blotting detection kit (Amersham) and was recorded on ECL plus hyperfilm (Amersham). Blots were scanned using the Bio-Rad GS-800 calibrated densitometer and quantitative analysis of western blots was performed using TotalLab software (Amersham). IC50 values for inhibition of phospho-Ser520-DYRK1A were calculated from dose-response curves plotting the ratio between phospho-Ser520-DYRK1A and total DYRK1A signals at each concentration. […] Anti-phospho-Ser520-DYRK1A antibody (Eurogentec SE6974-75; […]) and anti DYRK1A antibody (Abnova H00001859; 3 μg/ml) was then added for 1 hour at RT, followed by addition of Sulfa-TAG anti-rabbit detection antibody (ref MSD R32AB; 1 μg/ml) and Sulfa-TAG anti-mouse detection antibody (ref MSD R32-AC-1; 1 μg/ml). After a further 1 hour, Read Buffer was added and plates were read on the Sector Imager 2400 (Mesoscale). IC50 values for inhibition of phospho-Ser520-DYRK1A were calculated from dose-response curves.

The structures appear in SMILES notation.

Regarding `Cc1nc2ccc(-c3cc(N)nc(N)c3)nc2n1CC1Cc2ccccc21` (single isomer, unassigned) [Example 113, 4-[3-(bicyclo[4.2.0]octa-1,3,5-trien-7-ylmethyl)-2-methyl-3H-imidazo[4,5-b]pyridin-5-yl]pyridine-2,6-diamine], the concentration for half-maximal inhibition (IC50) in test [1] is 0.01 µM; in test [2] it was 0.243 µM.

For `Cc1nc2ccc(-c3cc(N)nc(N)c3)nc2n1C[C@H](C)Oc1ccccc1Cl` (single isomer, unassigned) [Example 117], the IC50 in test [1] turned out to be 0.006 µM; in test [2], 0.075 µM.

For `CC[C@@H](Cn1c(C)nc2ccc(-c3cc(N)nc(N)c3)nc21)Oc1ccccc1` (single isomer, unassigned) [Example 119], the IC50 came out at 0.004 µM in test [1] and 0.105 µM in test [2].

As for `CC[C@H](Cn1c(C)nc2ccc(-c3cc(N)nc(N)c3)nc21)Oc1ccccc1` (single isomer, unassigned) [Example 120], the IC50 in test [1] worked out at 0.003 µM; in test [2] it was 0.161 µM.

For `Cc1nc2ccc(-c3cc(N)nc(N)c3)nc2n1C[C@@H](C)N(C)c1ccccc1` (single isomer, unassigned) [Example 121], the 50% inhibitory concentration (IC50) in test [1] stood at 0.008 µM; in test [2] it was 0.041 µM.

For `Cc1nc2ccc(-c3cc(N)nc(N)c3)nc2n1C[C@H](C)N(C)c1ccccc1` (single isomer, unassigned) [Example 122], the IC50 in test [1] came to 0.02 µM; in test [2], 0.122 µM.

As for `Cc1nc2ccc(-c3cc(N)nc(N)c3)nc2n1C[C@H](C)Oc1cccc(F)c1` (single isomer, unassigned) [Example 123], the IC50 in test [1] is 0.01 µM; in test [2], 0.082 µM.

On to `Cc1nc2ccc(-c3cc(N)nc(N)c3)nc2n1C[C@@H](C)Oc1cccc(F)c1` (single isomer, unassigned) [Example 124], for which the IC50 in test [1] came out at 0.006 µM; in test [2], 0.061 µM.

With `COc1cccc(O[C@@H](C)Cn2c(C)nc3ccc(-c4cc(N)nc(N)c4)nc32)c1` (single isomer, unassigned) [Example 125], the IC50 was found to be 0.022 µM in test [1] and 0.151 µM in test [2].

As for `COc1cccc(O[C@H](C)Cn2c(C)nc3ccc(-c4cc(N)nc(N)c4)nc32)c1` (single isomer, unassigned) [Example 126], the IC50 was 0.055 µM in test [1] and 0.271 µM in test [2].

On to `Cc1cccc(O[C@H](C)Cn2c(C)nc3ccc(-c4cc(N)nc(N)c4)nc32)c1` (single isomer, unassigned) [Example 128], for which the results for the IC50 in test [1] and in test [2] were 0.037 µM and 0.163 µM, respectively.

`Cc1nc2ccc(-c3cc(N)nc(N)c3)nc2n1C[C@H](C)Oc1ccc(F)cc1` (single isomer, unassigned) [Example 129]: the figures for the IC50 in test [1] and in test [2] were 0.037 µM and 0.13 µM, respectively.

`Cc1ccccc1O[C@@H](C)Cn1c(C)nc2ccc(-c3cc(N)nc(N)c3)nc21` (single isomer, unassigned) [Example 131]: the values for the IC50 in test [1] and in test [2] were 0.016 µM and 0.045 µM, respectively.

Consider `Cc1ccccc1O[C@H](C)Cn1c(C)nc2ccc(-c3cc(N)nc(N)c3)nc21` (single isomer, unassigned) [Example 132], for which the values for the IC50 in test [1] and in test [2] were 0.038 µM and 0.207 µM, respectively.

With `Cc1nc2ccc(-c3cc(N)nc(N)c3)nc2n1C[C@H](C)Oc1ccccc1F` (single isomer, unassigned) [Example 133], the IC50 in test [1] came out at 0.015 µM; in test [2], 0.074 µM.

As for `Cc1nc2ccc(-c3cc(N)nc(N)c3)nc2n1C[C@@H](C)Oc1ccccc1F` (single isomer, unassigned) [Example 134], the IC50 in test [1] came out at 0.038 µM; in test [2], 0.205 µM.

Regarding `Cc1nc2ccc(-c3cc(N)nc(N)c3)nc2n1C[C@H](C)Sc1ccccc1` (single isomer, unassigned) [Example 135], the results for the IC50 in test [1] and in test [2] were 0.016 µM and 0.098 µM, respectively.

On to `Cc1nc2ccc(-c3cc(N)nc(N)c3)nc2n1C[C@@H](C)Sc1ccccc1` (single isomer, unassigned) [Example 136], for which the IC50 in test [1] came out at 0.028 µM; in test [2], 0.247 µM.

On to `Cc1nc2ccc(-c3cc(N)nc(N)c3)nc2n1[C@H]1C[C@H]1Cc1ccccc1` (single isomer, unassigned) [Example 137], for which the IC50 in test [1] was 0.048 µM; in test [2], 0.197 µM.

As for `Cc1nc2ccc(-c3cc(N)nc(N)c3)nc2n1[C@H]1C[C@@H]1Cc1ccccc1` (single isomer, unassigned) [Example 138], the IC50 was 0.052 µM in test [1] and 0.1 µM in test [2].

Consider `Cc1nc2ccc(-c3cc(N)nc(N)c3)nc2n1[C@@H]1C[C@@H]1Cc1ccccc1` (single isomer, unassigned) [Example 140], for which the results for the IC50 in test [1] and in test [2] were 0.007 µM and 0.024 µM, respectively.

Take `COc1ccccc1O[C@@H](C)Cn1c(C)nc2ccc(-c3cc(N)nc(N)c3)nc21` (single isomer, unassigned) [Example 141]: the IC50 in test [1] came out at 0.01 µM; in test [2], 0.191 µM.

On to `Cc1nc2ccc(-c3cc(N)nc(N)c3)nc2n1C[C@H](C)Oc1cccc(Cl)n1` (single isomer, unassigned) [Example 176], for which the IC50 in test [1] was 0.093 µM; in test [2] it was 0.223 µM.

For `Cc1nc2ccc(-c3cc(N)nc(N)c3)nc2n1C[C@@H](C)Oc1ccc(F)cn1` (single isomer, unassigned) [Example 179], the IC50 came to 0.023 µM in test [1] and 0.237 µM in test [2].

`Cc1nc2ccc(-c3cc(N)nc(N)c3)nc2n1C[C@H](C)Oc1ncccc1Br` (single isomer, unassigned) [Example 182]: the IC50 came out at 0.026 µM in test [1] and 0.175 µM in test [2].

On to `Cc1nc2ccc(-c3cc(N)nc(N)c3)nc2n1C[C@H](C)Oc1cccc(F)n1` (single isomer, unassigned) [Example 188], for which the IC50 in test [1] stood at 0.065 µM; in test [2], 0.181 µM.

Turning to `Cc1nc2ccc(-c3cc(N)nc(N)c3)nc2n1C[C@H](C)Oc1ncccc1Cl` (single isomer, unassigned) [Example 190], the IC50 in test [1] came out at 0.032 µM; in test [2] it was 0.148 µM.

`Cc1nc2ccc(-c3cc(N)nc(N)c3)nc2n1CCc1ccc2c(c1)OCCO2` [Example 77, 4-{3-[2-(2,3-dihydro-1,4-benzodioxin-6-yl)ethyl]-2-methyl-3H-imidazo[4,5-b]pyridin-5-yl}pyridine-2,6-diamine]: the values for the IC50 in test [1] and in test [2] were 0.008 µM and 0.077 µM, respectively.

For `Cc1nc2ccc(-c3cc(N)nc(N)c3)nc2n1CCc1ccccc1` [Example 83, 4-[2-methyl-3-(2-phenylethyl)-3H-imidazo[4,5-b]pyridin-5-yl]pyridine-2,6-diamine], the values for the IC50 in test [1] and in test [2] were 0.007 µM and 0.037 µM, respectively.

`Cc1nc2ccc(-c3cc(N)nc(N)c3)nc2n1Cc1ccnc(F)c1` [Example 84, 4-{3-[(2-fluoropyridin-4-yl)methyl]-2-methyl-3H-imidazo[4,5-b]pyridin-5-yl}pyridine-2,6-diamine]: the results for the IC50 in test [1] and in test [2] were 0.019 µM and 0.113 µM, respectively.

On to `Cc1nc2ccc(-c3cc(N)nc(N)c3)nc2n1CCC1CCCO1` (stereo not shown) [Example 85, 4-{2-methyl-3-[2-(tetrahydrofuran-2-yl)ethyl]-3H-imidazo[4,5-b]pyridin-5-yl}pyridine-2,6-diamine], for which the results for the IC50 in test [1] and in test [2] were 0.016 µM and 0.143 µM, respectively.

As to `Cc1nc2ccc(-c3cc(N)nc(N)c3)nc2n1CC1CC1C` (stereo not shown) [Example 86, 4-{2-methyl-3-[(2-methylcyclopropyl)methyl]-3H-imidazo[4,5-b]pyridin-5-yl}pyridine-2,6-diamine], the IC50 in test [1] is 0.019 µM; in test [2], 0.151 µM.

For orientation: IC50 means the concentration that inhibits the measured activity by half.
